Assay results taken from patent US8232406B2, “c-MET protein kinase inhibitors” (Vertex Pharmaceuticals Incorporated, priority 2006, dated 2012).

Target: c-MET (Homo sapiens, UniProt P08581)
Assay: Ki determination for the inhibition of c-MET (standard radiometric 33P-ATP kinase assay, polyE4Y substrate)
Type: biochemical
Settings: 1.0 nM c-Met, 35 μM ATP, 0.5 mg/mL polyE4Y, 20 min; competitive tight-binding fit
Procedure: Ki Determination for the Inhibition of c-MET
Compounds of the invention were screened for their ability to inhibit c-MET kinase activity using a standard radiometric assay. Briefly, in this kinase assay the transfer of the terminal ^33P-phosphate in ^33P-ATP to substrate polyE4Y is interrogated. The assay was carried out in 96-well plates to a final volume of 100 μL per well containing 1.0 nM c-Met, 100 mM HEPES (pH 7.5), 10 mM MgCl2, 25 mM NaCl, 0.01% BSA, 1 mM DTT, 0.5 mg/mL polyE4Y, and 35 μM ATP. Accordingly, compounds of the invention were dissolved in DMSO to make 10 mM initial stock solutions. Serial dilutions in DMSO were then made to obtain the final solutions for the assay. A 1.5 μL aliquot of DMSO or inhibitor in DMSO was added to each well. The reaction was initiated by the addition of ^33P-ATP and polyE4Y (obtained from Sigma). After 20 min, the reaction was quenched with 50 μL of 30% trichloroacetic acid (TCA) containing 4 mM ATP. The reaction mixture was transferred to the 0.66 mm GF filter plates (Corning) and washed three times with 5% TCA. Following the addition of 50 μL of Ultimate Gold™ high efficiency scintillant (Packard Bioscience), the samples were counted in a Packard TopCount NXT Microplate Scintillation and Luminescence Counter (Packard BioScience). The Ki values were calculated using Microsoft Excel Solver macros to fit the data to the kinetic model for competitive tight-binding inhibition.

Chain of c-MET (P08581 25-1390): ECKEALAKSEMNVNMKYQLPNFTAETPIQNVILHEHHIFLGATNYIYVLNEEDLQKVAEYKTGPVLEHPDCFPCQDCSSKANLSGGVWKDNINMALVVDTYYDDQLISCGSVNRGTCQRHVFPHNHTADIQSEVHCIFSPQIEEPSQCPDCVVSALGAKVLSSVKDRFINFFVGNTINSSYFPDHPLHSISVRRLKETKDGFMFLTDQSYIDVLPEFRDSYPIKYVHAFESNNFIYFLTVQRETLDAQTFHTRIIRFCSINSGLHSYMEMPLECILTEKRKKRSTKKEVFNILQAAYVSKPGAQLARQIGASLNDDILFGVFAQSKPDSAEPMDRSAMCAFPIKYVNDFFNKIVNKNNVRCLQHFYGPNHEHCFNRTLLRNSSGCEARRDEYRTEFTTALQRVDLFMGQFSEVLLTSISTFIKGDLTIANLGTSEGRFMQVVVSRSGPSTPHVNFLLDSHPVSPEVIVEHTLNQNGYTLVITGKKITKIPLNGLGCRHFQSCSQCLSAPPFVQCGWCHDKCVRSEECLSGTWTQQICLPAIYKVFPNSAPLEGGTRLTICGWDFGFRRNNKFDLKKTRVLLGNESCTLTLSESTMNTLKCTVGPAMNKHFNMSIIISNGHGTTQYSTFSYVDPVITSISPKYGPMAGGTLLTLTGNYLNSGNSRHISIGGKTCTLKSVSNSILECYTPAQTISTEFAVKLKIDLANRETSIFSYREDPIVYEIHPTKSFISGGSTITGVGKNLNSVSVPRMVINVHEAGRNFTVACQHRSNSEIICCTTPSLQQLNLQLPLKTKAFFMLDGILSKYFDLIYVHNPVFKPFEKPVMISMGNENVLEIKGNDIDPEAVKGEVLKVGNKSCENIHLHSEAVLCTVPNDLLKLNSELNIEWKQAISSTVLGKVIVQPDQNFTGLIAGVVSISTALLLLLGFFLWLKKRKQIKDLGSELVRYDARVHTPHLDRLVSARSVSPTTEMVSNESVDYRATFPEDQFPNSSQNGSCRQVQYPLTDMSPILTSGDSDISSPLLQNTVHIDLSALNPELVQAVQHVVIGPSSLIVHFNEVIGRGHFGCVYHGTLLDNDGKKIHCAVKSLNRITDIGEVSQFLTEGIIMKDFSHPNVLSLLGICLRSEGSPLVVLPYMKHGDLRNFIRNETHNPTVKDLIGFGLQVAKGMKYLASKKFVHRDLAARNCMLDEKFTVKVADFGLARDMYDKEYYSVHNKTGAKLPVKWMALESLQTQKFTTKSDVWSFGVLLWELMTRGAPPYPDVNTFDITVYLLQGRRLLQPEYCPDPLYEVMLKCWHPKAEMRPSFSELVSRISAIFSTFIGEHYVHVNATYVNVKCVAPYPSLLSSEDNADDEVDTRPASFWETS

| Compound | Ki [nM] |
| --- | --- |
| CC(=O)Nc1cccc(-c2cnc(N)c(-c3nnnn3-c3cc(F)ccc3F)c2)c1 [I-A-567] | 100 to 1000 |
| Nc1ncc(-c2ccc(CNC3CCC3)cc2)cc1-c1nnnn1-c1cccc(F)c1F [I-A-151] | ≤ 100 |
| Nc1ncc(-c2cnn(C3CCOCC3)c2)cc1-c1nnnn1-c1cccc(F)c1F [I-A-396] | ≤ 100 |
| Nc1ncc(-c2ccc(CO)cc2)cc1-c1nnnn1-c1cccc(F)c1F [I-A-232] | ≤ 100 |
| Nc1ncc(-c2ccc3c(c2)CNCC3)cc1-c1nnnn1-c1cccc(F)c1F [I-A-456] | ≤ 100 |
| Nc1nc2cc(F)c(-c3cnc(N)c(-c4nnnn4-c4cccc(F)c4F)n3)cc2[nH]1 [I-A-52] | ≤ 100 |
| CN(C)CCCN(C)S(=O)(=O)c1ccc(-c2cnc(N)c(-c3nnnn3-c3cccc(F)c3F)c2)cc1 [I-A-159] | ≤ 100 |
| Nc1ncc(-c2ccc(N3CCCC3)nc2)nc1-c1nnc(O)n1-c1cccc(F)c1F [I-A-18] | 100 to 1000 |
| CC(C)OC(=O)N1CC=C(c2cnc(N)c(-c3nnnn3-c3cccc(F)c3F)c2)CC1 [I-A-508] | ≤ 100 |
| Nc1ncc(-c2cc(F)ccc2F)cc1-c1nnnn1-c1cccc(F)c1F [I-A-294] | 100 to 1000 |
| CN(Cc1ccc(-c2cnc(N)c(-c3nnnn3-c3cccc(Cl)c3Cl)c2)cc1)Cc1cccnc1 [I-A-107] | 100 to 1000 |
| Nc1ncc(-c2nc3c(s2)CNCC3)nc1-c1nnnn1-c1cccc(F)c1F [I-A-537] | 100 to 1000 |
| CN(C)Cc1ccc(-c2cnc(N)c(-c3nnnn3-c3cccc(Cl)c3Cl)c2)cc1 [I-A-79] | ≤ 100 |
| Nc1ncc(-c2ccc(CN3CCCC3)c([N+](=O)[O-])c2)cc1-c1nnnn1-c1cccc(F)c1F [I-A-340] | ≤ 100 |
| CN(C)Cc1ccc(-c2cnc(N)c(-c3nnnn3-c3cc(Cl)cc(Cl)c3)c2)cc1 [I-A-590] | 100 to 1000 |
| CN(C)CCNC(=O)c1ccc(-c2cnc(N)c(-c3nnnn3-c3cccc(Cl)c3Cl)c2)cc1 [I-A-124] | ≤ 100 |
| Nc1ncc(-c2ccc(CN3CCCC3)cc2)cc1-c1nnnn1-c1cc(F)cc(F)c1 [I-A-603] | 100 to 1000 |
| Nc1ncc(C2=CCN(C(=O)[C@@H]3CCOC3)CC2)cc1-c1nnnn1-c1cccc(F)c1F [I-A-527] | ≤ 100 |
| Nc1ncc(-c2cnn(C3CC4CCC(C3)N4)c2)cc1-c1nnnn1-c1cccc(Cl)c1F (centres unmarked) [I-A-528] | ≤ 100 |
| Nc1ncc(-c2cc3c(s2)CCNCC3)cc1-c1nnnn1-c1cccc(Cl)c1Cl [I-A-431] | ≤ 100 |
| Nc1ncc(-c2cnn(C3CCCNCC3)c2)cc1-c1nnnn1-c1cccc(Cl)c1Cl (centres unmarked) [I-A-429] | ≤ 100 |
| Nc1ncc(-c2ccc(CN3CCOCC3)cc2)nc1-c1nnnn1-c1cccc(F)c1F [I-A-51] | ≤ 100 |
| Nc1ncc(-c2cnn(C3CCNCC3)c2)cc1-c1nnnn1-c1cccc(Cl)c1Cl [I-A-371] | ≤ 100 |
| NC(=O)[C@@H]1CCCN1Cc1ccc(-c2cnc(N)c(-c3nnnn3-c3cccc(F)c3F)c2)cc1 [I-A-132] | ≤ 100 |
| CC(C)C(=O)Nc1ccc(-c2cnc(N)c(-c3nnnn3-c3cccc(F)c3F)c2)cc1 [I-A-193] | ≤ 100 |
| CN(C(=O)Nc1cccc(-c2cnc(N)c(-c3nnnn3-c3cccc(F)c3F)c2)c1)c1ccccc1 [I-A-274] | 100 to 1000 |

| Compound | Ki [nM] |
| --- | --- |
| CS(=O)(=O)Nc1cccc(-c2cnc(N)c(-c3nnnn3-c3cccc(F)c3F)c2)c1 [I-A-254] | ≤ 100 |
| Nc1ncc(-c2cn[nH]c2)cc1-c1nncn1-c1cccc(Cl)c1F [I-A-439] | 100 to 1000 |
| CN(C)CC(=O)Nc1ccc(-c2cnc(N)c(-c3nnnn3-c3cccc(F)c3F)c2)cc1 [I-A-191] | ≤ 100 |
| CN(C)Cc1ccc(-c2cnc(N)c(-c3nnnn3-c3cccc(F)c3Cl)c2)cc1 [I-A-387] | 100 to 1000 |
| CC1(C)CN(c2cccc(-c3cnc(N)c(-c4nnnn4-c4cccc(F)c4F)c3)c2)C1=O [I-A-324] | 100 to 1000 |
| Nc1ncc(-c2cnn(C3CNC3)c2)cc1-c1nnnn1-c1cccc(Cl)c1F [I-A-650] | ≤ 100 |
| Nc1ncc(-c2cccs2)cc1-c1nnnn1-c1cccc(F)c1F [I-A-487] | ≤ 100 |
| Nc1ncc(C2=CCN(C(=O)O[C@H]3CCOC3)CC2)cc1-c1nnnn1-c1cccc(F)c1F [I-A-526] | ≤ 100 |
| CN(C)CCCNC(=O)c1ccc(-c2cnc(N)c(-c3nnnn3-c3cccc(F)c3F)c2)cc1 [I-A-136] | ≤ 100 |
| COCC(=O)Nc1ccc(-c2cnc(N)c(-c3nnnn3-c3cccc(F)c3F)c2)cc1 [I-A-342] | ≤ 100 |
| Nc1ncc(-c2ccc(OCCO)cc2)cc1-c1nnnn1-c1cccc(F)c1F [I-A-283] | ≤ 100 |
| CNCc1ccc(-c2cnc(N)c(-c3nnnn3-c3cccc(F)c3F)c2)cc1 [I-A-200] | ≤ 100 |
| Nc1ncc(-c2ccc(CN3CCCC3)cc2)cc1-c1nnnn1-c1c(F)cccc1Cl [I-A-616] | ≤ 100 |
| CC1CN(Cc2ccc(-c3cnc(N)c(-c4nnnn4-c4cccc(Cl)c4Cl)c3)cc2)CCN1 (centres unmarked) [I-A-106] | ≤ 100 |
| Nc1cccc(-c2cnc(N)c(-c3nnnn3-c3cccc(F)c3F)c2)c1 [I-A-201] | ≤ 100 |
| CC(=O)N1CCc2cc(-c3cnc(N)c(-c4nnnn4-c4cccc(F)c4F)c3)ccc21 [I-A-182] | ≤ 100 |
| Cc1ccc(-c2cnc(N)c(-c3nnnn3-c3cccc(F)c3F)c2)cc1 [I-A-255] | 100 to 1000 |
| CN(C)Cc1ccc(-c2cnc(N)c(-c3nc4cc(F)ccc4n3-c3cccc(Cl)c3F)c2)cc1 [I-D-22] | 100 to 1000 |
| Nc1ncc(-c2ccn(C3CCNCC3)c2)cc1-c1nnnn1-c1cccc(F)c1F [I-A-464] | ≤ 100 |
| N#Cc1cccc(-c2cnc(N)c(-c3nncn3-c3cccc(F)c3F)n2)c1 [I-A-30] | 100 to 1000 |
| COCCN(CCOC)Cc1ccc(-c2cnc(N)c(-c3nnnn3-c3cccc(Cl)c3Cl)c2)cc1 [I-A-101] | 100 to 1000 |
| Nc1ncc(-c2ccc(C3CCNCC3)s2)cc1-c1nnnn1-c1cccc(F)c1F [I-A-415] | ≤ 100 |
| Nc1ncc(-c2cnn([C@@H]3CCOC3)c2)cc1-c1nnnn1-c1cccc(-c2cnn([C@@H]3CCOC3)c2)c1F [I-A-421] | 100 to 1000 |
| Nc1ncc(-c2cnn(C3CCN(CC4CCC4)CC3)c2)cc1-c1nnnn1-c1cccc(Cl)c1F [I-A-473] | ≤ 100 |
| Nc1ncc(-c2ccc(N3CCCC3)nc2)cc1-c1nnnn1-c1cccc(Cl)c1Cl [I-A-82] | 100 to 1000 |
| CC(C)Oc1ccc(-c2cnc(N)c(-c3nnnn3-c3cccc(F)c3F)c2)cc1 [I-A-240] | 100 to 1000 |

| Compound | Ki [nM] |
| --- | --- |
| Nc1ncc(-c2cccnc2)cc1-c1nnsc1-c1cccc(Cl)c1Cl [I-C-1] | 100 to 1000 |
| CN(C)Cc1ccc(-c2cnc(N)c(-c3nnnn3-c3c(F)ccc(F)c3F)c2)cc1 [I-A-381] | ≤ 100 |
| Nc1ncc(-c2cccc(C(F)(F)F)c2)cc1-c1nncn1-c1cccc(F)c1F [I-A-116] | 100 to 1000 |
| Nc1ncc(-c2ccc(Cl)cc2)cc1-c1nncn1-c1cccc(F)c1F [I-A-114] | 100 to 1000 |
| CN(C)c1ccc(-c2cnc(N)c(-c3nnnn3-c3cccc(F)c3F)c2)cc1 [I-A-234] | ≤ 100 |
| CC(=O)Nc1cccc(-c2cnc(N)c(-c3nnnn3-c3cccc(Cl)c3C)c2)c1 [I-A-565] | 100 to 1000 |
| CN(C)c1ccc(-c2cnc(N)c(-c3nncn3-c3cccc(Cl)c3Cl)c2)cc1 [I-A-72] | 100 to 1000 |
| Nc1ncc(-c2ccc(C3CCCN3)cc2)cc1-c1nnnn1-c1cccc(F)c1F (centres unmarked) [I-A-258] | ≤ 100 |
| CN1CCN(c2ccc(-c3cnc(N)c(-c4nc5cccnc5n4-c4cccc(Cl)c4F)c3)cc2)CC1 [I-D-17] | 100 to 1000 |
| Nc1ncc(-c2ccc(CC3(O)CCNCC3)cc2)cc1-c1nnnn1-c1cccc(F)c1F [I-A-157] | ≤ 100 |
| COc1ccc(OC)c(-c2cnc(N)c(-c3nnnn3-c3cccc(F)c3F)c2)c1 [I-A-306] | 100 to 1000 |
| CC(=O)Nc1ccc(-c2cnc(N)c(-c3nnnn3-c3cccc(Cl)c3C)c2)cc1 [I-A-575] | 100 to 1000 |
| CN(C)CCCN(C)Cc1ccc(-c2cnc(N)c(-c3nnnn3-c3cccc(Cl)c3Cl)c2)cc1 [I-A-95] | ≤ 100 |
| CC(C)(C)CC(=O)Nc1ccc(-c2cnc(N)c(-c3nnnn3-c3cccc(F)c3F)c2)cc1 [I-A-199] | ≤ 100 |
| CCNC(=O)Nc1nc2cc(-c3cnc(N)c(-c4nnnn4-c4cccc(F)c4F)c3)c(F)cc2[nH]1 [I-A-140] | 100 to 1000 |
| COc1ccncc1-c1cnc(N)c(-c2nncn2-c2cccc(F)c2F)c1 [I-A-110] | 100 to 1000 |
| COCCOC(=O)Nc1cccc(-c2cnc(N)c(-c3nnnn3-c3cccc(F)c3F)c2)c1 [I-A-271] | 100 to 1000 |
| Nc1ncc(-c2cnn(C3CCCNCC3)c2)cc1-c1nnnn1-c1cccc(Cl)c1F (centres unmarked) [I-A-651] | ≤ 100 |
| COc1c(F)cccc1-n1nnnc1-c1cc(-c2ccc(CN(C)C)cc2)cnc1N [I-A-589] | ≤ 100 |
| Nc1ncc(-c2ccncc2)nc1-c1nncn1-c1cccc(F)c1F [I-A-3] | 100 to 1000 |
| NCc1ccc(-c2cnc(N)c(-c3nnnn3-c3cccc(F)c3F)c2)cn1 [I-A-155] | 100 to 1000 |
| Cc1ccc(Cl)cc1-n1nnnc1-c1cc(-c2ccc(CN(C)C)cc2)cnc1N [I-A-579] | 100 to 1000 |
| CCOC(=O)Cn1cc(-c2cnc(N)c(-c3nnnn3-c3cccc(F)c3F)c2)cn1 [I-A-345] | ≤ 100 |
| CN(C)Cc1cccc(-c2cnc(N)c(-c3nnnn3-c3cccc(Cl)c3Cl)c2)c1 [I-A-123] | ≤ 100 |
| COC(=O)[C@H](CC(C)C)NC(=O)Nc1cccc(-c2cnc(N)c(-c3nnnn3-c3cccc(F)c3F)c2)c1 [I-A-326] | 100 to 1000 |
